Data from US20220409617A1, “Drug Formulations and Methods of Treatment for Metabolic Disorders” (The Regents of the University of California, priority 2019, published 2022).

Test system: hepatic mitochondria
Assay: Hepatic mitochondrial morphology (NADH/NADPH autofluorescence) after acute treatment
Format: in vivo, mouse
Description: To determine whether sphingolipid-like compound 893 also protects from ceramide-induced mitochondrial fragmentation in vivo, a cohort of mice with diet-induced obesity was analyzed. Male, C57BL/6J mice were fed a 45% kcal from fat rodent diet (HFD) or a standard chow diet (10% kcal from fat) for 22-26 weeks. Mitochondrial morphology was compared in freshly resected livers from vehicle- or sphingolipid-like compound 893-treated mice using NADH/NADPH autofluorescence and confocal microscopy. When evaluating mitochondrial morphology, light microscopy has two, significant advantages over electron microscopy: 1) the 3D architecture of the mitochondrial network is readily apparent, and 2) quantitative measurements of mitochondrial shape can be made in a large number of cells in an automated and unbiased manner using image analysis software (FIG. 11). […]
MEFs were washed twice with PBS and fixed with 4% paraformaldehyde for 10 min at RT. […] NADH/NADPH autofluorescence was detected with 740 nm excitation and 450±50 nm detectors using a Mai Tai two-photon laser. Fluorescence microscopy was performed on a Zeiss LSM 780 confocal using a 63× oil objective with a […] numerical aperture (NA) or using a Nikon TE2000-S inverted epifluorescence microscope with a 100× oil objective (1.3 NA) and a Photometrics CoolSNAP ES2 monochrome CCD camera. […]

CCCCCCCCc1ccc([C@H]2CCN[C@@H]2CO)cc1.Cl [compound 893]
Hepatic mitochondrial morphology (aspect ratio, roundness), HFD-fed mice (single oral dose 120 mg/kg at ZT8.5, HFD-fed, treatment-naive mice): increasing their tubularity (increased aspect ratio) and reducing their roundness to match controls fed standard chow | Hepatic mitochondrial morphology, lean SD-fed mice (single oral dose 120 mg/kg, mice consuming the SD): did not significantly alter hepatic mitochondrial morphology
